The text below walks through data of US11479551B2, “MTA-cooperative PRMT5 inhibitors” (Mirati Therapeutics, Inc., priority 2019, dated 2022).

The assay concerns the target PRMT5/MEP50 complex (Homo sapiens (Human), UniProt O14744). The assay can be described thus: PRMT5:MEP50 FlashPlate Assay (histone H4 peptide substrate, plus and minus MTA). The class given is biochemical. As for the experimental part:
The PRMT5 inhibitory activity of compounds of the present invention was determined using either a PRMT5:MEP50 FlashPlate Assay (Reaction Biology Corporation) or a PRMT5:MEP50 HotSpot Assay (Reaction Biology Corporation).
1. PRMT5:MEP50 FlashPlate Assay

[1] abbreviates: IC50 + 2 μM MTA (nM), in the presence of 2 μM MTA.
Setting [2] is: in the absence of MTA, read-out: IC50.

Like-named read-outs stand apart in the source and are kept apart here. Some results are limits rather than exact numbers.

PRMT5/MEP50 complex, sequence (O14744 2-637): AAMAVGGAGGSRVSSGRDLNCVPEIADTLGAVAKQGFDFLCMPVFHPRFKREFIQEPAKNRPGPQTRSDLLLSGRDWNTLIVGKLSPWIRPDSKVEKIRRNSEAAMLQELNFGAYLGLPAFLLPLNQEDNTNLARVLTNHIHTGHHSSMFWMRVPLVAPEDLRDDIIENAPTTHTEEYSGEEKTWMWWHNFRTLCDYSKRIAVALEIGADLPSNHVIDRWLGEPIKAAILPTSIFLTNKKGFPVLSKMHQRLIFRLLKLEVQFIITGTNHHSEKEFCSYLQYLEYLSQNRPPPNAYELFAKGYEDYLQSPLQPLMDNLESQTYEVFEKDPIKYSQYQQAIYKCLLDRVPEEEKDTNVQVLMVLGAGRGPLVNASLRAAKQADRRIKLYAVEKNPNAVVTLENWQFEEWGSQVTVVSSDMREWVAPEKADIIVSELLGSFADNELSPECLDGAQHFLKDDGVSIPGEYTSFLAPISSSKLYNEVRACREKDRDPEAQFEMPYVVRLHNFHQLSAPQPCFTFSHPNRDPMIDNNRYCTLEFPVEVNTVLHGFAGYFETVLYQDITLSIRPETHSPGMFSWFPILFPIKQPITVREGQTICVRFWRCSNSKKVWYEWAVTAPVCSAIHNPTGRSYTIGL
PRMT5/MEP50 complex, sequence (Q9BQA1 2-342 partner): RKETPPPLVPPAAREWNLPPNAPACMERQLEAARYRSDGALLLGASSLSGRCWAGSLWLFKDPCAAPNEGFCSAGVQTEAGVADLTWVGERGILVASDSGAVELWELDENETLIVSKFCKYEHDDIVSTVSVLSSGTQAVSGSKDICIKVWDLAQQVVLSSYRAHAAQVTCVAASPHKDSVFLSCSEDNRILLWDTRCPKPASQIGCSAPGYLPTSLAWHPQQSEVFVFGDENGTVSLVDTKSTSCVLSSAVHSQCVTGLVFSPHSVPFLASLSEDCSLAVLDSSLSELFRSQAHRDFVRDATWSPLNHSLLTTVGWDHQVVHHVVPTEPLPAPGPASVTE

Broadly, the IC50 is the midpoint of a concentration-inhibition curve. For the molecule `NCc1n[nH]c(=O)c2ccc(-c3cncc(OC(F)F)c3)cc12` [Example 3-51, 4-(aminomethyl)-6-(5-(difluoromethoxy)pyridin-3-yl)phthalazin-1(2H)-one], the IC50 under setting [1] amounted to 500 nM and the IC50 under setting [2] was 11100 nM.

As for `NCc1n[nH]c(=O)c2cc(Nc3ccccc3)ccc12` [Example 6-3, 4-(aminomethyl)-7-anilino-2H-phthalazin-1-one], the IC50 was 9400 nM under setting [1] and greater than 100000 nM under setting [2].

Take `NCc1n[nH]c(=O)c2ccc(-c3cnc4cccnn34)cc12` [Example 4-26, 4-(aminomethyl)-6-(imidazo[1,2-b]pyridazin-3-yl)phthalazin-1(2H)-one]: the IC50 by setting is: under setting [1], 130 nM; under setting [2], 1730 nM.

As for `NCc1n[nH]c(=O)c2ccc(-c3cncc(C(F)F)c3)cc12` [Example 3-36, 4-(aminomethyl)-6-(5-(difluoromethyl)pyridin-3-yl)phthalazin-1(2H)-one], the IC50 is, setting by setting: under setting [1], 450 nM; under setting [2], 9130 nM.

`Cc1ncccc1-c1ccc2c(=O)[nH]nc(CN)c2c1` [Example 3-18, 4-(aminomethyl)-6-(2-methylpyridin-3-yl)phthalazin-1(2H)-one]: the IC50 by setting is: under setting [1], 33000 nM; under setting [2], greater than 1e+06 nM.

Take `Cc1c(-c2ccc3c(=O)[nH]nc(CN)c3c2)cnn1C` [Example 3-9, 4-(aminomethyl)-6-(1,5-dimethyl-1H-pyrazol-4-yl)phthalazin-1(2H)-one]: the IC50 amounted to 33 nM under setting [1] and 1230 nM under setting [2].

As for `N#Cc1ccc(F)cc1-c1cncc(-c2ccc3c(=O)[nH]nc(CN)c3c2)c1` [Example 8-1, 2-(5-(4-(aminomethyl)-1-oxo-1,2-dihydrophthalazin-6-yl)pyridin-3-yl)-4-fluorobenzonitrile], the half-maximal inhibitory concentration (IC50) runs as follows: under setting [1], 47 nM; under setting [2], 1650 nM.

Consider `NCc1n[nH]c(=O)c2ccc(-c3cnc4[nH]cc(F)c4c3)cc12` [Example 4-42, 4-(aminomethyl)-6-(3-fluoro-1H-pyrrolo[2,3-b]pyridin-5-yl)phthalazin-1(2H)-one], for which the IC50 worked out at 45 nM under setting [1] and 1380 nM under setting [2].

Consider `Cn1cc(-c2ccc3c(CN)n[nH]c(=O)c3c2)cn1` [Example 1-8, 4-(aminomethyl)-7-(1-methyl-1H-pyrazol-4-yl)phthalazin-1(2H)-one], for which the IC50 under setting [1] is 10000 nM and the IC50 under setting [2] is greater than 100000 nM.

With `Cc1ccc(Oc2cncc(-c3ccc4c(=O)[nH]nc(CN)c4c3)c2)c(C)c1Cl` [Example 4-76, 4-(aminomethyl)-6-(5-(3-chloro-2,4-dimethylphenoxy)pyridin-3-yl)phthalazin-1(2H)-one], the IC50 is 1.3 nM under setting [1] and 31 nM under setting [2].

As for `NCc1n[nH]c(=O)c2ccc(-c3cnc4[nH]cc(C(F)(F)F)c4c3)cc12` [Example 4-43, 4-(aminomethyl)-6-(3-(trifluoromethyl)-1H-pyrrolo[2,3-b]pyridin-5-yl)phthalazin-1(2H)-one], the IC50 was found to be 32 nM under setting [1] and 1520 nM under setting [2].

Consider `Cn1ncc(-c2ccc3c(=O)[nH]nc(CN)c3c2)c1-c1cccc(Cl)c1` [Example 4-92, 4-(aminomethyl)-6-(5-(3-chlorophenyl)-1-methyl-1H-pyrazol-4-yl)phthalazin-1(2H)-one], for which the concentration for half-maximal inhibition (IC50) is, setting by setting: under setting [1], 3.5 nM; under setting [2], 137 nM.

Turning to `Cc1ccccc1Sc1cncc(-c2ccc3c(=O)[nH]nc(CN)c3c2)c1` [Example 4-59, 4-(aminomethyl)-6-(5-(o-tolylthio)pyridin-3-yl)phthalazin-1(2H)-one], the IC50 is 2.1 nM under setting [1] and 68 nM under setting [2].

Turning to `Cc1nc2ccc(Cl)nn2c1-c1ccc2c(=O)[nH]nc(CN)c2c1` [Example 4-14, 4-(aminomethyl)-6-(6-chloro-2-methylimidazo[1,2-b]pyridazin-3-yl)phthalazin-1(2H)-one], the IC50 was 7900 nM under setting [1] and greater than 100000 nM under setting [2].

As for `Cn1ncc(-c2ccc3c(=O)[nH]nc(CN)c3c2)c1-c1cccc(F)c1` [Example 4-91, 4-(aminomethyl)-6-(5-(3-fluorophenyl)-1-methyl-1H-pyrazol-4-yl)phthalazin-1(2H)-one], the IC50 reads like this: under setting [1], 16 nM; under setting [2], 249 nM.

As to `CC(C)N1CCn2ncc(-c3ccc4c(=O)[nH]nc(CN)c4c3)c2C1` [Example 4-81, 4-(aminomethyl)-6-(5-isopropyl-4,5,6,7-tetrahydropyrazolo[1,5-a]pyrazin-3-yl)phthalazin-1(2H)-one], the IC50 is, setting by setting: under setting [1], 18 nM; under setting [2], 826 nM.

With `NCc1n[nH]c(=O)c2ccc(-c3cncc(Sc4ccccc4)c3)cc12` [Example 4-55, 4-(aminomethyl)-6-(5-(phenylthio)pyridin-3-yl)phthalazin-1(2H)-one], the half-inhibitory concentration (IC50) reads like this: under setting [1], 1.2 nM; under setting [2], 30 nM.

As to `NCc1n[nH]c(=O)c2cc(NCc3ccccc3)ccc12` [Example 6-4, 4-(aminomethyl)-7-(benzylamino)-2H-phthalazin-1-one], the IC50 under setting [1] is 19000 nM.

Turning to `NCc1n[nH]c(=O)c2ccc(-c3cnc[nH]3)cc12` [Example 3-31, 4-(aminomethyl)-6-(1H-imidazol-5-yl)phthalazin-1(2H)-one], the IC50 reads like this: under setting [1], 80000 nM; under setting [2], greater than 100000 nM.

For the molecule `Cn1ncc(-c2ccc3c(=O)[nH]nc(CN)c3c2)c1-c1ccc(F)cc1` [Example 4-95, 4-(aminomethyl)-6-(5-(4-fluorophenyl)-1-methyl-1H-pyrazol-4-yl)phthalazin-1(2H)-one], the IC50 by setting is: under setting [1], 4.9 nM; under setting [2], 228 nM.

With `NCc1n[nH]c(=O)c2ccc(-c3cncc(Oc4cccc(F)c4)c3)cc12` [Example 4-65, 4-(aminomethyl)-6-(5-(3-fluorophenoxy)pyridin-3-yl)phthalazin-1(2H)-one], the IC50 by setting is: under setting [1], 16 nM; under setting [2], 517 nM.

`N#Cc1ccc(Cl)cc1-c1cncc(-c2ccc3c(=O)[nH]nc(CN)c3c2)c1` [Example 8-6, 2-(5-(4-(aminomethyl)-1-oxo-1,2-dihydrophthalazin-6-yl)pyridin-3-yl)-4-chlorobenzonitrile]: the IC50 by setting is: under setting [1], 52 nM; under setting [2], 2140 nM.

For `NCc1n[nH]c(=O)c2ccc(-c3cnc4ccc(-c5ccccc5)cn34)cc12` [Example 4-39, 4-(aminomethyl)-6-(6-phenylimidazo[1,2-a]pyridin-3-yl)phthalazin-1(2H)-one], the IC50 is 1.7 nM under setting [1] and 109 nM under setting [2].

`Cc1nc2ccc(F)cn2c1-c1ccc2c(=O)[nH]nc(CN)c2c1` [Example 4-33, 4-(aminomethyl)-6-(6-fluoro-2-methylimidazo[1,2-a]pyridin-3-yl)phthalazin-1(2H)-one]: the 50% inhibitory concentration (IC50) is, setting by setting: under setting [1], greater than 100000 nM; under setting [2], greater than 100000 nM.

Turning to `NCc1n[nH]c(=O)c2ccc(-c3cncc([S+]([O-])c4ccccc4)c3)cc12` (stereo not shown) [Example 4-111, 4-(aminomethyl)-6-(5-(phenylsulfinyl)pyridin-3-yl)phthalazin-1(2H)-one], the IC50 runs as follows: under setting [1], 12 nM; under setting [2], 472 nM.

In the case of `N#Cc1cncc(-c2ccc3c(=O)[nH]nc(CN)c3c2)c1F` [Example 3-38], the IC50 reads like this: under setting [2], 4940 nM; (read-out: IC50 + 2 μM MTA, in the presence of 2 μM MTA) 370 nM.

With `NCc1n[nH]c(=O)c2ccc(-c3cncc(N4CCOCC4)c3)cc12` [Example 3-58, 4-(aminomethyl)-6-(5-morpholinopyridin-3-yl)phthalazin-1(2H)-one], the IC50 runs as follows: under setting [1], 510 nM; under setting [2], 8070 nM.

As to `COc1ccc(Oc2cncc(-c3ccc4c(=O)[nH]nc(CN)c4c3)c2)cc1` [Example 4-77, 4-(aminomethyl)-6-(5-(4-methoxyphenoxy)pyridin-3-yl)phthalazin-1(2H)-one], the IC50 runs as follows: under setting [1], 1.1 nM; under setting [2], 96 nM.

As for `NCc1n[nH]c(=O)c2ccc(-c3cncs3)cc12` [Example 3-1, 4-(aminomethyl)-6-(thiazol-5-yl)phthalazin-1(2H)-one], the IC50 reads like this: under setting [1], 3700 nM; under setting [2], 89600 nM.

For `Cc1nc2cncc(-c3ccc4c(=O)[nH]nc(CN)c4c3)c2o1` [Example 4-110, 4-(aminomethyl)-6-(2-methyloxazolo[4,5-c]pyridin-7-yl)phthalazin-1(2H)-one], the IC50 under setting [1] was determined as 1000 nM.

As for `NCc1n[nH]c(=O)c2ccc(-c3cnc4ccc(F)cn34)cc12` [Example 4-21, 4-(aminomethyl)-6-(6-fluoroimidazo[1,2-a]pyridin-3-yl)phthalazin-1(2H)-one], the IC50 reads like this: under setting [1], 70 nM; under setting [2], 1970 nM.

For the molecule `Cc1nn(C)cc1-c1ccc2c(=O)[nH]nc(CN)c2c1` [Example 3-22, 4-(aminomethyl)-6-(1,3-dimethyl-1H-pyrazol-4-yl)phthalazin-1(2H)-one], the IC50 reads like this: under setting [1], 35000 nM; under setting [2], greater than 100000 nM.

`NCc1n[nH]c(=O)c2ccc(-c3cncc4ccccc34)cc12` [Example 3-54, 4-(aminomethyl)-6-(isoquinolin-4-yl)phthalazin-1(2H)-one]: the IC50 stood at 64 nM under setting [1] and 1290 nM under setting [2].

`N#Cc1ccn2c(-c3ccc4c(=O)[nH]nc(CN)c4c3)cnc2c1` [Example 4-35, 3-(4-(aminomethyl)-1-oxo-1,2-dihydrophthalazin-6-yl)imidazo[1,2-a]pyridine-7-carbonitrile]: the IC50 runs as follows: under setting [1], 1100 nM; under setting [2], greater than 100000 nM.

Consider `COc1cccc(Oc2cncc(-c3ccc4c(=O)[nH]nc(CN)c4c3)c2)c1` [Example 4-68, 4-(aminomethyl)-6-(5-(3-methoxyphenoxy)pyridin-3-yl)phthalazin-1(2H)-one], for which the IC50 under setting [1] came out at 10 nM and the IC50 under setting [2] amounted to 243 nM.

As for `NCc1n[nH]c(=O)c2ccc(-c3cncn3Cc3ccccc3)cc12` [Example 4-108, 4-(aminomethyl)-6-(1-benzyl-1H-imidazol-5-yl)phthalazin-1(2H)-one], the IC50 came to 900 nM under setting [1] and 8650 nM under setting [2].
